Results: US9253983B2, “Triazole compound and use thereof” (KUREHA CORPORATION, priority 2011, dated 2016)

Tests used:
Puccinia recondita = test: Controlling effect on wheat brown rust (leaf rust) by foliage spray treatment (Tests 1 and 2); type: in vivo; conditions: foliage spray 0.8 mg/L, 1,000 L/ha, 11 days after inoculation
wheat = test: Necrosis (adverse effects) of seed treatment on wheat seeds; type: in vivo; conditions: 20 days after sowing
Phaeosphaeria nodorum = test: Test 1 for antifungal effect, plate medium: P.n; type: cell-based; conditions: PDA plate medium
Procedure, shortened: (§1)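 DMSO solution of compound mixed into PDA (~60° C), poured, solidified → 4 mm culture plug inoculated → incubated 1–7 d at organism's optimum temp → colony diameter measured → inhibition % = 100(dc−dt)/dc vs no-compound plate.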

Gaeumannomyces graminis = test: Test 1 for antifungal effect, plate medium: G.g; type: cell-based; conditions: PDA plate medium
Procedure, shortened: as §1

Gibberella fujikuroi = test: Test 1 for antifungal effect, plate medium: G.f; type: cell-based; conditions: PDA plate medium
Procedure, shortened: as §1

Rhizopus oryzae = test: Test 1 for antifungal effect, plate medium: R.o; type: cell-based; conditions: PDA plate medium
Procedure, shortened: as §1

Sclerotinia sclerotiorum = test: Test 1 for antifungal effect, plate medium: S.s; type: cell-based; conditions: PDA plate medium
Procedure, shortened: as §1

Botrytis cinerea = test: Test 1 for antifungal effect, plate medium: B.c; type: cell-based; conditions: PDA plate medium
Procedure, shortened: as §1

Glomerella cingurata = test: Test 1 for antifungal effect, plate medium: G.c; type: cell-based; conditions: PDA plate medium
Procedure, shortened: as §1

Pyrenophora graminea = test: Test 2 for antifungal effect, plate medium: P.g; type: cell-based; conditions: PDA plate medium
Procedure, shortened: (§2)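 Compound in DMSO was mixed into PDA medium at about 60° C to make plates at a set concentration. These were inoculated with 4 mm mycelial plugs and grown 1–7 days at each pathogen's optimum temperature. Colony diameter was compared with compound-free plates to give growth inhibition, rated on a 1–5 scale.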

Ustilago nuda = test: Test 2 for antifungal effect, plate medium: U.n; type: cell-based; conditions: PDA plate medium
Procedure, shortened: as §2

CC1(CCl)CCC(Cc2ccc(F)cc2)C1(O)Cn1cncn1 (single isomer, unassigned) [Compound (1-2b), (1,2-cis, 1,5-cis)-5-(4-fluorobenzyl)-2-chloromethyl-2-methyl-1-(1H-1,2,4-triazole-1-ylmethyl)cyclopentanol]
5 (90% or greater): Antifungal index (mycelial growth inhibition rate) (Phaeosphaeria nodorum; 2.50 mg/L) | Antifungal index (mycelial growth inhibition rate) (Gaeumannomyces graminis; 1.25 mg/L) | Antifungal index (mycelial growth inhibition rate) (Gaeumannomyces graminis; 2.50 mg/L) | Antifungal index (mycelial growth inhibition rate) (Gibberella fujikuroi; 0.63 mg/L) | Antifungal index (mycelial growth inhibition rate) (Gibberella fujikuroi; 1.25 mg/L) | Antifungal index (mycelial growth inhibition rate) (Gibberella fujikuroi; 2.50 mg/L) | Antifungal index (mycelial growth inhibition rate) (Sclerotinia sclerotiorum; 0.31 mg/L) | Antifungal index (mycelial growth inhibition rate) (Sclerotinia sclerotiorum; 0.63 mg/L) | Antifungal index (mycelial growth inhibition rate) (Sclerotinia sclerotiorum; 1.25 mg/L) | Antifungal index (mycelial growth inhibition rate) (Sclerotinia sclerotiorum; 2.50 mg/L) | Antifungal index (mycelial growth inhibition rate) (Botrytis cinerea; 0.63 mg/L) | Antifungal index (mycelial growth inhibition rate) (Botrytis cinerea; 1.25 mg/L) | Antifungal index (mycelial growth inhibition rate) (Botrytis cinerea; 2.50 mg/L) | Antifungal index (mycelial growth inhibition rate) (Glomerella cingurata; 0.63 mg/L) | Antifungal index (mycelial growth inhibition rate) (Glomerella cingurata; 1.25 mg/L) | Antifungal index (mycelial growth inhibition rate) (Glomerella cingurata; 2.50 mg/L) | Antifungal index (mycelial growth inhibition rate) (Pyrenophora graminea; 0.08 mg/L) | Antifungal index (mycelial growth inhibition rate) (Pyrenophora graminea; 0.16 mg/L) | Antifungal index (mycelial growth inhibition rate) (Pyrenophora graminea; 0.31 mg/L) | Antifungal index (mycelial growth inhibition rate) (Pyrenophora graminea; 0.63 mg/L) | Antifungal index (mycelial growth inhibition rate) (Pyrenophora graminea; 1.25 mg/L) | Antifungal index (mycelial growth inhibition rate) (Ustilago nuda; 1.25 mg/L)
4 (Less than 90% but not less than 80%): Antifungal index (mycelial growth inhibition rate) (Gaeumannomyces graminis; 0.63 mg/L) | Antifungal index (mycelial growth inhibition rate) (Gibberella fujikuroi; 0.31 mg/L) | Antifungal index (mycelial growth inhibition rate) (Glomerella cingurata; 0.31 mg/L) | Antifungal index (mycelial growth inhibition rate) (Pyrenophora graminea; 0.04 mg/L) | Antifungal index (mycelial growth inhibition rate) (Ustilago nuda; 0.31 mg/L) | Antifungal index (mycelial growth inhibition rate) (Ustilago nuda; 0.63 mg/L)
2 (Less than 70% but not less than 60%): Antifungal index (mycelial growth inhibition rate) (Phaeosphaeria nodorum; 0.63 mg/L) | Antifungal index (mycelial growth inhibition rate) (Rhizopus oryzae; 2.50 mg/L) | Antifungal index (mycelial growth inhibition rate) (Ustilago nuda; 0.16 mg/L)
1 (Less than 60%): Antifungal index (mycelial growth inhibition rate) (Phaeosphaeria nodorum; 0.16 mg/L) | Antifungal index (mycelial growth inhibition rate) (Phaeosphaeria nodorum; 0.31 mg/L) | Antifungal index (mycelial growth inhibition rate) (Gaeumannomyces graminis; 0.16 mg/L) | Antifungal index (mycelial growth inhibition rate) (Gaeumannomyces graminis; 0.31 mg/L) | Antifungal index (mycelial growth inhibition rate) (Rhizopus oryzae; 0.16 mg/L) | Antifungal index (mycelial growth inhibition rate) (Rhizopus oryzae; 0.31 mg/L) | Antifungal index (mycelial growth inhibition rate) (Rhizopus oryzae; 0.63 mg/L) | Antifungal index (mycelial growth inhibition rate) (Rhizopus oryzae; 1.25 mg/L) | Antifungal index (mycelial growth inhibition rate) (Botrytis cinerea; 0.16 mg/L) | Antifungal index (mycelial growth inhibition rate) (Ustilago nuda; 0.04 mg/L) | Antifungal index (mycelial growth inhibition rate) (Ustilago nuda; 0.08 mg/L)
0 (Less than 1%): Necrosis index (wheat; treatment amount 2 g ai/100 kg seeds)
3 (Less than 80% but not less than 70%): Antifungal index (mycelial growth inhibition rate) (Phaeosphaeria nodorum; 1.25 mg/L) | Antifungal index (mycelial growth inhibition rate) (Gibberella fujikuroi; 0.16 mg/L) | Antifungal index (mycelial growth inhibition rate) (Sclerotinia sclerotiorum; 0.16 mg/L) | Antifungal index (mycelial growth inhibition rate) (Botrytis cinerea; 0.31 mg/L) | Antifungal index (mycelial growth inhibition rate) (Glomerella cingurata; 0.16 mg/L)
3 (20% or more): Necrosis index (wheat; treatment amount 20 g ai/100 kg seeds) | Necrosis index (wheat; treatment amount 200 g ai/100 kg seeds)
80%: Protective value (%) (Puccinia recondita)
